Test results taken from patent publication US11993574B2, “Pyrazole and imidazole compounds for inhibition of IL-17 and RORgamma” (REATA PHARMACEUTICALS, INC., priority 2018, dated 2024).

Tests used:
Type in all cases: cell-based
[1] = system: Nrf2 transcription factor; assay: AREc32 luciferase reporter assay; settings: Homo sapiens; AREc32 cells, 19 hours; concentration required to increase GST ARE luciferase reporter activity by 2-fold; read-out: NRF2 ARE 2-Fold (EC2×)
Source text: A. AREc32 Luciferase Reporter Assay
The AREc32 luciferase reporter assay allows for quantitative assessment of the endogenous activity of the Nrt2 transcription factor in cultured mammalian cells. AREc32 cells are derived from MCF-7 human breast carcinoma cells that were stably transfected with a reporter construct that contains the firefly luciferase gene located downstream of eight copies of the rat GSTA2 antioxidant response element (ARE) sequence (Wang et al., 2006; Concept Life Sciences Integrated Discovery and Development Services Ltd (CLSIDDS)). Active Nrf2 binds to the ARE sequences and increases expression of the firefly luciferase gene. To assess the Nrf2-activating potential of the test compounds, AREc32 cells were plated in black […] plates at a density of 20,000 cells per well in triplicate in DMEM+10% FBS+0.8 mg/mL Geneticin and incubated at 37° C. with 5% CO2 in a humidified atmosphere. The next day, cells were treated with DMSO (vehicle) or test compound (concentration ranges of 0.4-200 nM or 3.9-2000 nM) for 19 hours. Luciferase activity was determined using the ONE-Glo Luciferase assay (Promega). The luminescence signal was measured on a BMG Pherastar microplate reader. The mean luminescence value from test compound-treated wells was normalized to that from DMSO-treated wells and was represented as fold-induction. Data were analyzed using GraphPad Prism version 6.00 for Windows, GraphPad Software, La Jolla Calif. USA. A non-linear regression curve with log (agonist) vs. response using a variable slope was used to fit the data. Where applicable, a maximum threshold value of 50-fold over DMSO was set. EC2× values were interpolated from the curve. EC2× corresponds to the concentration of test compound required to increase GST ARE Luciferase reporter activity by 2-fold.

IL-17A = assay: IL-17 release from differentiated primary human T-cells (IL-17A HTRF assay); settings: primary human CD4+ T cells differentiated into Th17 cells, 45-hour incubation, IL-17A in supernatant; read-out: hIL17 IC50
Experimental: C. IL-17 Release from Differentiated Primary Human T-Cells and Cell Viability
Primary human cryopreserved CD4+ T Cells (Lonza) were thawed according to the manufacturer's recommendations and plated either in Lymphocyte Growth Medium-3 (LGM-3) or X-VIVO 20 media (Lonza) in 96-well tissue culture plates at a density of ˜2×10^5 cells per well, and allowed to recover for approximately 4 hours at 37° C. with 5% CO2 in a humidified atmosphere. After the recovery step, DMSO (vehicle) or test compound at doses ranging from 2 to 500 nM or 4 to 1000 nM in a three-fold dilution series was added to the cells. Three replicate wells were tested for each treatment condition. Final DMSO concentration in each well was 0.1%. Immediately after treatment, CD4+ T cells were activated by adding Dynabeads Human T-Activator CD3/CD28 (Life Technologies; bead-to-cell ratio of 1:2.5) and differentiated into Th17 cells by adding a mixture of the following cytokines: transforming growth factor-β (TGF-β, 5 ng/mL), IL-6 (20 ng/mL), IL-23 (20 ng/mL), and IL-1β (10 ng/mL). Undifferentiated control cells received only cytokine IL-2 (50 ng/mL). All human recombinant cytokines were purchased from R&D Systems. Following a 45-hour incubation at 37° C. with 5% CO2 in a humidified atmosphere, the plates were centrifuged for 3 minutes at 250×g, and half of the supernatant was transferred to anew plate to be used in the IL-17A assay (see below). Cell viability was assessed in the original plate using the CyQuant Direct Assay (Life Technologies). CyQuant reagent (an amount equal to 10% of remaining media volume) was added to the wells, and the plates were then incubated at 37° C. for 75 min. Fluorescence was read on a SpectraMax M2e spectrophotometer at 480 nm (excitation) and 535 nm (emission) wavelengths. CyQuant values from test compound samples were normalized to those from DMSO-treated samples. The concentration of IL-17A in the supernatant was measured using the Homogeneous Time-Resolved Fluorescence (HTRF) assay (Cisbio Bioassays) according to the manufacturer's protocol. The assay was performed at room temperature in low volume, solid white 384-well plates (Greiner Bio-One). Samples and standards (serially-diluted human recombinant IL-17A (0 to 5,000 pg/mL concentration range; Cisbio Bioassays) were incubated with the anti-human IL-17A antibody conjugates (the HTRF donor and acceptor pair) for 16 hours and fluorescence was measured using a Pherastar FS microplate reader (BMG Labtech) in the HTRF mode (excitation at 337 nm and emission at 665 nm and 620 nm). IL-17A levels were assessed in duplicate aliquots of supernatant from each well resulting in a total of six readings per test condition. The 665 nm/620 nm signal ratio was calculated and the concentration of IL-17A in each sample was determined by interpolation from the standard curve. The amount of IL-17A from test compound treated samples were normalized to that of the vehicle-treated samples, set to 100%. Data were analyzed using GraphPad Prism (GraphPad Software, La Jolla California USA). Concentrations of test compound were transformed by taking the logarithm of each concentration used. The IC50 values for compound-mediated reduction in IL-17A levels and cell viability were determined by non-linear regression analysis using the log(inhibitor) vs. normalized response with variable slope equation. Inhibition that is closely correlated with reduced viability is considered to be non-specific.

[2] = molecular target: T1, Human RAR-related Orphan Receptor Gamma (RORγ) (Homo sapiens, UniProt P51449); assay: RORγ assay (GAL4-RORγ hybrid luciferase reporter, Indigo Biosciences); settings: inverse-agonist activity, GAL4-RORγ reporter cells, 23 hours
T1 sequence (P51449 269-508 limits assumed): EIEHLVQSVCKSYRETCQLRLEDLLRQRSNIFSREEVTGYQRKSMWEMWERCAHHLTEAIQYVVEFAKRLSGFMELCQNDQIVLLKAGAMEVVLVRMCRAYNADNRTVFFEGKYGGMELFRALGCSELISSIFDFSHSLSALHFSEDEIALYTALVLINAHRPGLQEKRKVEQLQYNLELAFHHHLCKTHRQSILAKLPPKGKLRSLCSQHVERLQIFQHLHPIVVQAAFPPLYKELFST
Source text: B. RORγ Assay and Cell Viability
The RORγ assay system was purchased from Indigo Biosciences. This nuclear receptor assay utilizes a human cell line that has been engineered to express a hybrid form of the Human RAR-related Orphan Receptor Gamma (RORγ) at high levels. The N-terminal DNA binding domain (DBD) of the native RORγ receptor was substituted with the yeast GAL4-DBD to generate the GAL4-RORγ hybrid nuclear receptor. The reporter cell line is transfected with a plasmid that encodes the beetle luciferase gene under the control of the GAL4 upstream activating sequence (UAS). GAL4 binds to the UAS and increases transcription of downstream target genes. The GAL4-RORγ hybrid is constitutively active; therefore, the principle application of this reporter assay system is to screen test compounds to quantify inverse-agonist activities against human RORγ. Because the ligand binding domain (LBD) of RORγ is identical to the LBD of RORγt, this assay is an accurate surrogate for evaluating activity of experimental ligands against RORγt. To assess the RORγ inverse-agonist activity of the test compounds, reporter cells were plated in white 96-well plates in triplicate and were treated with DMSO (vehicle) or test compound (concentration ranges of 7.8-2000 nM) at 37° C. with 5% CO2 in a humidified atmosphere for 23 hours. After this incubation, luciferin was added to the wells and luciferase activity was determined by measuring the luminescence signal using a BMG Pherastar microplate reader. Viability was determined using the Live Cell Multiplex Assay (Indigo Biosciences). Values from test compound samples were normalized to those from DMSO-treated samples. Data were analyzed using GraphPad Prism version 6.00 for Windows (GraphPad Software, La Jolla Calif. USA). A non-linear regression analysis with log (inhibitor) vs. normalized response using a variable slope was applied to fit the data and determine the IC50 values for inhibition of RORγ and cell viability. Inhibition that is closely correlated with reduced viability is considered to be non-specific.

Compound	IC50 (IL-17A) [nM]	IC50 [2] [nM]	EC (2-fold) [1] [µM]
C[C@H]1C(=O)C(C#N)=C[C@@]2(C)c3c(c(-c4ccccc4)nn3-c3cccc(-c4ccccc4)c3)CC[C@H]12 [T35]	58	129	0.328
Cc1noc(C)c1-c1ccc(-n2nc(-c3ccccc3)c3c2[C@]2(C)C=C(C#N)C(=O)[C@H](C)[C@H]2CC3)cc1 [T38]	37	46	0.215
C[C@H]1C(=O)C(C#N)=C[C@@]2(C)c3c(c(-c4ccccc4)nn3-c3ccc(-c4ccc(CO)cc4)cc3)CC[C@H]12 [T42]	35	33	0.13
C[C@H]1C(=O)C(C#N)=C[C@@]2(C)c3c(c(-c4ccccc4)nn3-c3ccc(-c4ccccc4CO)cc3)CC[C@H]12 [T43]	43	53	0.174
Cc1ccccc1-c1ccc(-n2nc(-c3ccccc3)c3c2[C@]2(C)C=C(C#N)C(=O)[C@H](C)[C@H]2CC3)cc1 [T44]	41	83	0.242

Compounds with a lower IC50 (IL-17A), results first:

IC50 (IL-17A) [nM]	IC50 [2] [nM]	Compound	EC (2-fold) [1] [µM]
22	87	C[C@H]1C(=O)C(C#N)=C[C@@]2(C)c3c(c(-c4ccccc4)nn3-c3ccc(-c4ccccc4F)cc3)CC[C@H]12 [T36]	0.233
24	32	C[C@H]1C(=O)C(C#N)=C[C@@]2(C)c3c(c(-c4ccccc4)nn3-c3ccc(-c4cccnc4)cc3)CC[C@H]12 [T37]	0.167
31	25	C[C@H]1C(=O)C(C#N)=C[C@@]2(C)c3c(c(-c4ccccc4)nn3-c3ccc(-c4ccncc4)cc3)CC[C@H]12 [T39]	0.139
23	80	C[C@H]1C(=O)C(C#N)=C[C@@]2(C)c3c(c(-c4ccccc4)nn3-c3ccc(-c4cccc(F)c4)cc3)CC[C@H]12 [T40]	0.238
25	83	Cc1ccc(-c2ccc(-n3nc(-c4ccccc4)c4c3[C@]3(C)C=C(C#N)C(=O)[C@H](C)[C@H]3CC4)cc2)cc1 [T41]	0.249
22	44	C[C@H]1C(=O)C(C#N)=C[C@@]2(C)c3c(c(-c4ccccc4)nn3-c3ccc(-c4cccc(CO)c4)cc3)CC[C@H]12 [T45]	0.147
20	65	COc1ccc(-c2ccc(-n3nc(-c4ccccc4)c4c3[C@]3(C)C=C(C#N)C(=O)[C@H](C)[C@H]3CC4)cc2)cc1 [T46]	0.219
